According to article PMC11649380 (Inorganic chemistry, 2022):
Where two headings read alike, the source gives them in different places.

What was measured:
[1] = target: T1, mitochondrial calcium uniporter (MCU) (Homo sapiens, UniProt Q8NE86); conditions: read-out: IC50 of MCU-mediated mCa2+ uptake inhibition; permeabilized HEK293T cells (1 × 10^7 cells/mL); ref [46]; cited from earlier work
T1 sequence (Q8NE86 51-351): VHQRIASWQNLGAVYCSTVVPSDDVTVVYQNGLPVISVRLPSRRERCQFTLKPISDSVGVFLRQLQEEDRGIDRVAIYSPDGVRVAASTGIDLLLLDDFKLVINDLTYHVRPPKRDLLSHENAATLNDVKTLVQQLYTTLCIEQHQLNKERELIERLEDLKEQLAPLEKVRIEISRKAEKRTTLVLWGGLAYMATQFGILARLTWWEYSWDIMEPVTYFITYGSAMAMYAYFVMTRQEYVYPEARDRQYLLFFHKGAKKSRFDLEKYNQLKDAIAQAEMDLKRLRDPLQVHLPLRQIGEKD
T1 sequence (Q9H4I9 48-107 partner limits assumed): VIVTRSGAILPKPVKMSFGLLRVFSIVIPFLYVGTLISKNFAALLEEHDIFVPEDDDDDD

[2] = Aquation kinetics of axial ligand dissociation by 1H NMR spectroscopy; assay type: physicochemical; conditions: for k1 × 10^5 (first aquation rate constant) / k2 × 10^4 (second aquation rate constant): 37 °C, pH 7.4 MOPS-buffered solution, 400 μM complex, 1H NMR; for half-life: mops buffer, pH 7.4
[3] = ref [51], cited from earlier work
[4] = target: T1, mitochondrial calcium uniporter (MCU); assay: Mitochondrial Ca2+ uptake inhibition in digitonin-permeabilized HEK293T cells; assay type: cell-based
[5] = test system: HeLa cells; assay: Cellular uptake by GFAAS in HeLa cells; assay type: cell-based; conditions: 50 μM for 2 h
[6] = target: T2, organic cation transporter 3 (OCT3) (Homo sapiens, UniProt O75751); assay: Role of OCT3 in cellular uptake; assay type: cell-based; conditions: HeLa, 50 μM complex, 1 μM decynium-22, 3 h
T2 sequence (O75751 1-556): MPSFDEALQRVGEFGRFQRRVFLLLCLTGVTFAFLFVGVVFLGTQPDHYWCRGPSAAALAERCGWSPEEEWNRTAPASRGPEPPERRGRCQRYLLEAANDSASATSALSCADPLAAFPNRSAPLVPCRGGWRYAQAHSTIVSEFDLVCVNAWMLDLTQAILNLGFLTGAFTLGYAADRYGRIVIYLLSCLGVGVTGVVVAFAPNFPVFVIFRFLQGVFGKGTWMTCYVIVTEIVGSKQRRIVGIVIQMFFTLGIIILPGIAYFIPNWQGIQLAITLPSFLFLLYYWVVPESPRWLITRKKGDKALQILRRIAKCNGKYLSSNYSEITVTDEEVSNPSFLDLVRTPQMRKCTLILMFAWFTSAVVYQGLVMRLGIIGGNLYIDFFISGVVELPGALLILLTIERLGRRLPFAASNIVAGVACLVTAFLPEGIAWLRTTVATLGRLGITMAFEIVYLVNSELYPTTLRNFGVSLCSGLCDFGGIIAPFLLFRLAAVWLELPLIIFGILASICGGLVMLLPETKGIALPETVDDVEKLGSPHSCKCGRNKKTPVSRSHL

[7] = test system: HEK293T cells; assay: Cellular uptake by GFAAS in HEK293T cells; assay type: cell-based; conditions: 50 μM for 2 h

Row | Structure (SMILES) | k1 × 10^5 (first aquation rate constant) [2] [s^−1] | k2 × 10^4 (second aquation rate constant) [2] [s^−1] | half-life [2] [h] | other results
1 | N.N.N.N.N.N.N.N.[Cl][Ru+3].[NH]=[Ru][Cl] [Ru265, [ClRu(NH3)4(μ-N)Ru(NH3)4Cl]Cl3] | – | – | – | IC50 [1]: 0.0086 ± 0.0022 µM
2 | CC(=O)[O-].CC(=O)[O-].N.N.N.N.N.N.N.N.[N-3].[Ru+4].[Ru+4] [Complex 2, [(CH3CO2)Ru(NH3)4(μ-N)Ru(NH3)4(O2CCH3)](NO3)3] | 2.0 ± 0.5 | 3.0 ± 1.2 | 9.9 ± 2.4 | –
3 | N.N.N.N.N.N.N.N.[Cl][Ru+3].[N-]=[Ru][Cl] [Ru265, [ClRu(NH3)4(μ-N)Ru(NH3)4Cl]Cl3] | – | – | – | t1/2 (1) (half-life of first aquation step) ([3]; 37 °C, UV-vis spectroscopy): 2.28 min; k1 × 10^5 (first aquation rate constant) ([3]; 37 °C, determined using UV-vis spectroscopy, first aquation step only): 49.2 s^−1; half-life of aquation of axial chloride ligands ([3]; same conditions (pH 7.4, 37 °C)): approximately 2 min; mCa2+ uptake at 1 μM ([4]; freshly prepared 1 μM solutions, permeabilized HEK293T cells): complete abrogation of mCa^2+ uptake; cellular uptake (intracellular Ru accumulation) [5]: taken up by both cell lines to a similar extent; cellular uptake in the presence of the OCT3 inhibitor decynium-22 [6]: diminished in the presence of the OCT3 inhibitor; cellular uptake (intracellular Ru accumulation) [7]: taken up by both cell lines to a similar extent
4 | N.N.N.N.N.N.N.N.O=C[O-].O=C[O-].[N-3].[Ru+4].[Ru+4] [Complex 1, [(HCO2)Ru(NH3)4(μ-N)Ru(NH3)4(O2CH)](NO3)3] | 5.9 ± 0.2 | 3.6 ± 0.3 | 3.3 ± 0.1 | –
5 | CCC(=O)[O-].CCC(=O)[O-].N.N.N.N.N.N.N.N.[N-3].[Ru+4].[Ru+4] [Complex 3, [(CH3CH2CO2)Ru(NH3)4(μ-N)Ru(NH3)4(O2CCH2CH3)](NO3)3] | 2.8 ± 0.1 | 3.3 ± 0.5 | 6.9 ± 0.2 | –
6 | CCCC(=O)[O-].CCCC(=O)[O-].N.N.N.N.N.N.N.N.[N-3].[Ru+4].[Ru+4] [Complex 4, [(CH3(CH2)2CO2)Ru(NH3)4(μ-N)Ru(NH3)4(O2C(CH2)2CH3)](OSO2CF3)3] | 3.2 ± 0.1 | 2.8 ± 0.2 | 5.9 ± 0.2 | IC50 [4]: 0.0187 ± 0.0001 µM
